Test results reported in ChEMBL document CHEMBL2390827, “Ligand-based design, synthesis, and experimental evaluation of novel benzofuroxan derivatives as anti-Trypanosoma cruzi agents” (Eur J Med Chem, 2013).
The source made the active and inactive calls. The calls are words filed in the database; no cut-off is given here.

What was measured:
[1] = Cytotoxicity against human fibroblasts assessed as growth inhibition after 24 hrs by MTT assay; assay type: cell-based; conditions: Fibroblast
[2] = Selectivity index, ratio of IC50 for human fibroblasts to GI50 for epimastigote stage of Trypanosoma cruzi Y
Trypanosoma cruzi = experiment: Antitrypanosomal activity against epimastigote stage of Trypanosoma cruzi Y assessed as parasite growth inhibition after 5 days by spectrophotometric analysis; assay type: functional

| log1/GI50 (Trypanosoma cruzi) | GI50 (Trypanosoma cruzi; Trypanosoma cruzi, Y, 120 h) | GI50 (Trypanosoma cruzi) | SMILES | IC50 [1] | Selectivity Index [2] |
| --- | --- | --- | --- | --- | --- |
| 5.52 | 3.04 µM | – | CCCc1ccc(C(=O)N/N=C/c2ccc3c(c2)no[n+]3[O-])cc1 | > 200 µM | >65.79 |
| 4.77 | 16.9 µM | – | O=C(N/N=C/c1ccc2c(c1)no[n+]2[O-])c1ccccc1 | – | – |
| 5.15 | 7.12 µM | – | CC(C)c1ccc(C(=O)N/N=C/c2ccc3c(c2)no[n+]3[O-])cc1 | > 200 µM | >28.09 |
| 5.21 | 6.11 µM | – | O=C(N/N=C/c1ccc2c(c1)no[n+]2[O-])c1ccc(I)cc1 | > 200 µM | >32.73 |
| – | – | inactive | O=C(N/N=C/c1ccc2c(c1)no[n+]2[O-])c1ccc(O)cc1 | – | – |
| 5 | 9.91 µM | – | CCc1ccc(C(=O)N/N=C/c2ccc3c(c2)no[n+]3[O-])cc1 | – | – |
| 3.92 | 120 µM | – | O=C(N/N=C/c1ccc([N+](=O)[O-])o1)c1ccc(O)cc1 [NIFUROXAZIDE] | 77.4 µM | 0.64 |
| – | – | inactive | CN(C)c1ccc(C(=O)N/N=C/c2ccc3c(c2)no[n+]3[O-])cc1 | – | – |
| 5.24 | 5.78 µM | – | CCCCOc1ccc(C(=O)N/N=C/c2ccc3c(c2)no[n+]3[O-])cc1 | > 200 µM | >34.6 |
| 5 | 9.96 µM | – | O=C(N/N=C/c1ccc2c(c1)no[n+]2[O-])c1ccc(Cl)cc1 | – | – |
| 5.11 | 7.78 µM | – | O=C(N/N=C/c1ccc2c(c1)no[n+]2[O-])c1ccc(Br)cc1 | > 200 µM | >25.71 |
| 4.68 | 22.7 µM | – | O=C(Cn1ccnc1[N+](=O)[O-])NCc1ccccc1 [BENZNIDAZOLE] | > 200 µM | >9.6 |
| 5.43 | 3.72 µM | – | CCCCc1ccc(C(=O)N/N=C/c2ccc3c(c2)no[n+]3[O-])cc1 | > 200 µM | >53.76 |
| 4.58 | 26.6 µM | – | N#Cc1ccc(C(=O)N/N=C/c2ccc3c(c2)no[n+]3[O-])cc1 | – | – |
| 5.02 | 9.62 µM | – | O=C(N/N=C/c1ccc2c(c1)no[n+]2[O-])c1ccc(C(F)(F)F)cc1 | – | – |
| 5.02 | 9.54 µM | – | O=C(N/N=C/c1ccc2c(c1)no[n+]2[O-])c1ccc(Cl)cc1Cl | 38.3 µM | 4.01 |
| 5.42 | 3.78 µM | – | CC1CS(=O)(=O)CCN1/N=C/c1ccc([N+](=O)[O-])o1 (stereo unspecified) [NIFURTIMOX] | > 200 µM | >52.91 |
| 4.82 | 15.3 µM | – | O=C(N/N=C/c1ccc2c(c1)no[n+]2[O-])c1ccc(F)cc1 | – | – |
| 5.24 | 5.45 µM | – | CC(C)(C)c1ccc(C(=O)N/N=C/c2ccc3c(c2)no[n+]3[O-])cc1 | > 200 µM | >36.7 |
| 4.8 | 16 µM | – | CC(=O)c1ccc(C(=O)N/N=C/c2ccc3c(c2)no[n+]3[O-])cc1 | – | – |
| 4.22 | 60.4 µM | – | NS(=O)(=O)c1ccc(C(=O)N/N=C/c2ccc3c(c2)no[n+]3[O-])cc1 | 60 µM | 0.99 |
| 5.02 | 9.62 µM | – | CCOc1ccc(C(=O)N/N=C/c2ccc3c(c2)no[n+]3[O-])cc1 | – | – |
| 5.04 | 9.07 µM | – | O=C(N/N=C/c1ccc2c(c1)no[n+]2[O-])c1ccc(Cl)c(Cl)c1 | 65 µM | 7.17 |
| 4.93 | 11.9 µM | – | Cc1ccc(C(=O)N/N=C/c2ccc3c(c2)no[n+]3[O-])cc1 | – | – |
| 4.88 | 13.2 µM | – | COc1ccc(C(=O)N/N=C/c2ccc3c(c2)no[n+]3[O-])cc1 | – | – |
| 3.93 | 117 µM | – | Nc1ccc(C(=O)N/N=C/c2ccc3c(c2)no[n+]3[O-])cc1 | > 200 µM | 1.71 |
| 4.8 | 15.9 µM | – | O=C(N/N=C/c1ccc2c(c1)no[n+]2[O-])c1ccc([N+](=O)[O-])c(C(F)(F)F)c1 | – | – |
| 5.39 | 4.07 µM | – | CCCOc1ccc(C(=O)N/N=C/c2ccc3c(c2)no[n+]3[O-])cc1 | > 200 µM | >49.14 |
| 4.75 | 17.8 µM | – | O=C(N/N=C/c1ccc2c(c1)no[n+]2[O-])c1ccc([N+](=O)[O-])cc1 | – | – |
